For 47 molecules, EC50 results are on record in patent US11452717B2, “Small molecule activators of nicotinamide phosphoribosyltransferase (NAMPT) and uses thereof” (Sanford Burnham Prebys Medical Discovery Institute, priority 2017, dated 2022).

For the assay, the target named is NAMPT enzyme (Homo sapiens (Human), UniProt P43490). As to the kind of experiment: Enzyme Assay and NMN Detection (NAMPT reaction, fluorescence detection of NMN). The format is biochemical. Conditions: NAMPT activation, NMN formation. The procedure: NAMPT reaction was performed in 50 mM HEPES, pH 7.5, containing 5 mM MgCl2, 0.1% Prionex, 0.005% Tween 20, and 1 mM TCEP at room temperature in Greiner 384-well black polypropylene plates. The concentration of substrates and enzymes in the final assay were as follows: ATP (120 uM), nicotinamide (5 uM), phosphoribosylpyrophosphate (6.25 uM), NAMPT enzyme (16 nM), pyrophosphatase (0.04 U/ml) in the final reaction volume 6 uL. Following 2 h incubation the reaction was stopped by addition 2.5 ul 20% acetophenone in dimethyl sulfoxide (DMSO) and 2.5 ul 2 MKOH. Plates were centrifuges and added with 10.5 ul 88% formic acid. The fluorescence (ex380/em460) was measured following another short incubation and 30 min incubation. The increased concentration of NMN was determined from a calibration curve obtained at the time of experiment.
Chain of NAMPT enzyme (P43490 whole entry, species assumed): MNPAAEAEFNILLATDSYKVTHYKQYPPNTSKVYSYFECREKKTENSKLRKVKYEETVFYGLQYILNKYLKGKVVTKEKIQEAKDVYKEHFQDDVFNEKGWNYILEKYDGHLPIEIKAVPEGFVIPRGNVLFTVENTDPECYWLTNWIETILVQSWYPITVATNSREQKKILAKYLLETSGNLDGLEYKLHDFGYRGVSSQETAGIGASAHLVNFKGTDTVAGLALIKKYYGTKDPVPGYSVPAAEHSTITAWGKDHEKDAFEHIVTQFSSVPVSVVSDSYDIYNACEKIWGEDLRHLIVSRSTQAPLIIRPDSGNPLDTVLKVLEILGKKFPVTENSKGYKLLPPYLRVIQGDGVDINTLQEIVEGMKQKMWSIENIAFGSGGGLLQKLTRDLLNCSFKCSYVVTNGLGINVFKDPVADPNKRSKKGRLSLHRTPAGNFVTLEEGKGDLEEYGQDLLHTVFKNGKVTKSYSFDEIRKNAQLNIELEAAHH

Structures are written as SMILES.

As usually defined, the EC50 is the concentration at which the effect is half-maximal. Regarding `Cc1ccccc1-c1ccccc1S(=O)(=O)c1ccc(NC(=O)NCc2ccncc2)cc1` [1-(4-((2′-Methyl-[1,l′-biphenyl]-2-yl)sulfonyl)phenyl)-3-(pyridin-4-ylmethyl)urea], where the note is “Table B-6”, the concentration giving a half-maximal response (EC50) was 0.1 to 2 µM.

The molecule `O=C(NCc1cnco1)Nc1ccc(S(=O)(=O)c2cccc(Cl)c2)cc1` [1-(4-((3-Chlorophenyl)sulfonyl)phenyl)-3-(oxazol-5-ylmethyl)urea] showed a 50% effective concentration (EC50) (Table B-5) of less than 0.1 µM.

Where the note is “Table B-5”, `O=C(NCc1cnco1)Nc1ccc(S(=O)(=O)c2cccc(F)c2)cc1` [1-(4-((3-Fluorophenyl)sulfonyl)phenyl)-3-(oxazol-5-ylmethyl)urea] showed an EC50 of 0.1 to 2 µM.

Turning to `O=C(NCc1ccncc1)Nc1ccc(S(=O)(=O)c2cccc(F)c2)cc1` [1-(4-((3-Fluorophenyl)sulfonyl)phenyl)-3-(pyridin-4-ylmethyl)urea], the concentration giving a half-maximal response (EC50) (Table B-6) is less than 0.1 µM.

In the case of `N#Cc1cccc(-c2ccccc2S(=O)(=O)c2ccc(NC(=O)NCc3ccncc3)cc2)c1` [1-(4-((3′-Cyano-[1,1′-biphenyl]-2-yl)sulfonyl)phenyl)-3-(pyridin-4-ylmethyl)urea], the EC50 (Table B-6) lay in the range of 2 to 5 µM.

With `O=C(NCc1cnco1)Nc1ccc(S(=O)(=O)c2ccc(Cl)cc2)cc1` [1-(4-((4-Chlorophenyl)sulfonyl)phenyl)-3-(oxazol-5-ylmethyl)urea], the EC50 (Table B-5) was in the range of 0.1 to 2 µM.

`O=C(NCc1cnco1)Nc1ccc(S(=O)(=O)c2ccc(F)cc2)cc1` [1-(4-((4-Fluorophenyl)sulfonyl)phenyl)-3-(oxazol-5-ylmethyl)urea] registered a concentration giving a half-maximal response (EC50) (Table B-5) of 0.1 to 2 µM.

The molecule `O=C(NCc1ccncc1)Nc1ccc(S(=O)(=O)c2ccc(F)cc2)cc1` [1-(4-((4-Fluorophenyl)sulfonyl)phenyl)-3-(pyridin-4-ylmethyl)urea] showed an EC50 (Table B-6) of 0.1 to 2 µM.

For the setting “Table B-6”, `O=C(NCc1ccncc1)Nc1ccc(Nc2nc(-c3ccccc3)cs2)cc1` [1-(4-((4-Phenylthiazol-2-yl)amino)phenyl)-3-(pyridin-4-ylmethyl)urea] came in with an EC50 of 0.1 to 2 µM.

As for `N#Cc1ccc(-c2ccccc2S(=O)(=O)c2ccc(NC(=O)NCc3ccncc3)cc2)cc1` [1-(4-((4′-Cyano-[1,l′-biphenyl]-2-yl)sulfonyl)phenyl)-3-(pyridin-4-ylmethyl)urea], for the setting “Table B-6”, the 50% effective concentration (EC50) fell in the range of 5 to 20 µM.

In turn, `O=C(NCc1ccncc1)Nc1ccc(Nc2ncc(-c3ccccc3)s2)cc1` [1-(4-((5-Phenylthiazol-2-yl)amino)phenyl)-3-(pyridin-4-ylmethyl)urea] yielded an EC50 (Table B-6) of 5 to 20 µM.

Where the note is “Table B-5”, `O=C(NCc1cnco1)Nc1ccc(-c2nc3ccccc3s2)cc1` [1-(4-(Benzo[d]thiazol-2-yl)phenyl)-3-(oxazol-5-ylmethyl)urea] showed a concentration giving a half-maximal response (EC50) of 5 to 20 µM.

In the case of `O=C(NCc1ccncc1)Nc1ccc(-c2nc3ccccc3s2)cc1` [1-(4-(Benzo[d]thiazol-2-yl)phenyl)-3-(pyridin-4-ylmethyl)urea], under “Table B-6”, the EC50 is 5 to 20 µM.

`O=C(NCc1cnco1)Nc1ccc(Nc2nc3ccccc3s2)cc1` [1-(4-(Benzo[d]thiazol-2-ylamino)phenyl)-3-(oxazol-5-ylmethyl)urea] came in with an EC50 (Table B-5) of 5 to 20 µM.

The molecule `O=C(NCc1ccncc1)Nc1ccc(C(=O)N2Cc3ccccc3C2)cc1` [1-(4-(Isoindoline-2-carbonyl)phenyl)-3-(pyridin-4-ylmethyl)urea] returned an EC50 (Table B-2) of more than 20 µM.

Where the note is “Table B-2”, `O=C(NCc1ccncc1)Nc1ccc(C(=O)N2CCOCC2)cc1` [1-(4-(Morpholine-4-carbonyl)phenyl)-3-(pyridin-4-ylmethyl)urea] yielded a concentration for a half-maximal effect (EC50) of 5 to 20 µM.

`O=C(NCc1ccncc1)Nc1ccc(C(=O)N2CCCCC2)cc1` [1-(4-(Piperidine-1-carbonyl)phenyl)-3-(pyridin-4-ylmethyl)urea]: under “Table B-2”, the 50% effective concentration (EC50) is 5 to 20 µM.

As to `O=C(NCc1ccncc1)Nc1ccc(S(=O)(=O)c2ccccn2)cc1` [1-(4-(Pyridin-2-ylsulfonyl)phenyl)-3-(pyridin-4-ylmethyl)urea], the EC50 (Table B-6) lay in the range of 0.1 to 2 µM.

Where the note is “Table B-5”, `O=C(NCc1cnco1)Nc1ccc(S(=O)(=O)c2ccccc2-c2ccccc2)cc1` [1-(4-([1,1′-Biphenyl]-2-ylsulfonyl)phenyl)-3-(oxazol-5-ylmethyl)urea] displayed a half-maximal effective concentration (EC50) of less than 0.1 µM.

In the case of `O=C(NCc1ccncc1)Nc1ccc(S(=O)(=O)c2ccccc2-c2ccccc2)cc1` [1-(4-([1,1′-Biphenyl]-2-ylsulfonyl)phenyl)-3-(pyridin-4-ylmethyl)urea], the concentration giving a half-maximal response (EC50) (Table B-6) fell in the range of 0.1 to 2 µM.

`O=C(NCc1cnco1)Nc1ccc(S(=O)(=O)c2cccc(-c3ccccc3)c2)cc1` [1-(4-([1,1′-Biphenyl]-3-ylsulfonyl)phenyl)-3-(oxazol-5-ylmethyl)urea] gave an EC50 (Table B-5) of 0.1 to 2 µM.

Under “Table B-1”, `O=C(NCc1cn[nH]c1)Nc1ccc(S(=O)(=O)c2ccccc2)cc1` [1-(4-Benzenesulfonyl-phenyl)-3-(1H-pyrazol-4-ylmethyl)-urea] gave a concentration giving a half-maximal response (EC50) of less than 0.1 µM.

Regarding `O=C(NCc1cnco1)Nc1ccc(S(=O)(=O)c2ccccc2)cc1` [1-(4-Benzenesulfonyl-phenyl)-3-oxazol-5-ylmethyl-urea], under “Table B-1”, the 50% effective concentration (EC50) is less than 0.1 µM.

The molecule `O=C(NCc1ccncc1)Nc1ccc(S(=O)(=O)c2ccccc2)cc1` [1-(4-Benzenesulfonyl-phenyl)-3-pyridin-4-ylmethyl-urea] yielded a concentration giving a half-maximal response (EC50) (Table B-2) of less than 0.1 µM.

In the case of `O=C(NCc1cn[nH]c1)Nc1ccc(-c2cccc3scnc23)cc1` [1-(4-Benzothiazol-4-yl-phenyl)-3-(1H-pyrazol-4-ylmethyl)-urea], the half-maximal effective concentration (EC50) (Table B-4) fell in the range of 0.1 to 2 µM.

In the case of `O=C(NCc1cnco1)Nc1ccc(-c2cccc3scnc23)cc1` [1-(4-Benzothiazol-4-yl-phenyl)-3-oxazol-5-ylmethyl-urea], under “Table B-5”, the EC50 fell in the range of 0.1 to 2 µM.

`O=C(NCc1ccncc1)Nc1ccc(-c2cccc3scnc23)cc1` [1-(4-Benzothiazol-4-yl-phenyl)-3-pyridin-4-ylmethyl-urea] returned an EC50 (Table B-6) of 0.1 to 2 µM.

In the case of `O=C(NCc1ccccn1)Nc1ccc(Cl)cc1` [1-(4-Chlorophenyl)-3-(pyridin-2-ylmethyl)urea], the EC50 (Table B-3) was more than 20 µM.

In turn, `O=C(NCc1cccnc1)Nc1ccc(Cl)cc1` [1-(4-Chlorophenyl)-3-(pyridin-3-ylmethyl)urea] yielded an EC50 (Table B-3) of more than 20 µM.

For the molecule `O=C(NCc1ccncc1)Nc1ccc(Cl)cc1` [1-(4-Chlorophenyl)-3-(pyridin-4-ylmethyl)urea], for the setting “Table B-2”, the EC50 was 5 to 20 µM.

As to `O=C(NCc1cnco1)Nc1ccc(NS(=O)(=O)Cc2ccc(Cl)cc2)cc1` [1-(4-Chlorophenyl)-N-(4-(3-(oxazol-5-ylmethyl)ureido)phenyl)methanesulfonamide], where the note is “Table B-5”, the concentration for a half-maximal effect (EC50) is less than 0.1 µM.

`O=C(NCc1cn[nH]c1)Nc1ccc(S(=O)(=O)C2CCCCC2)cc1` [1-(4-Cyclohexanesulfonyl-phenyl)-3-(1H-pyrazol-4-ylmethyl)-urea] yielded an EC50 (Table B-4) of 0.1 to 2 µM.

`O=C(NCc1ccncc1)Nc1ccc(S(=O)(=O)C2CCCCC2)cc1` [1-(4-Cyclohexanesulfonyl-phenyl)-3-pyridin-4-ylmethyl-urea]: the concentration giving a half-maximal response (EC50) (Table B-6) is 0.1 to 2 µM.

`O=C(NCc1ccccn1)Nc1ccc(F)cc1` [1-(4-Fluorophenyl)-3-(pyridin-2-ylmethyl)urea] returned an EC50 (Table B-3) of more than 20 µM.

`O=C(NCc1cccnc1)Nc1ccc(F)cc1` [1-(4-Fluorophenyl)-3-(pyridin-3-ylmethyl)urea] gave an EC50 (Table B-3) of more than 20 µM.

Regarding `O=C(NCc1ccncc1)Nc1ccc(F)cc1` [1-(4-Fluorophenyl)-3-(pyridin-4-ylmethyl)urea], under “Table B-2”, the EC50 is more than 20 µM.

Under “Table B-3”, `COc1ccc(NC(=O)NCc2ccccn2)cc1` [1-(4-Methoxyphenyl)-3-(pyridin-2-ylmethyl)urea] had a 50% effective concentration (EC50) of more than 20 µM.

For the molecule `COc1ccc(NC(=O)NCc2cccnc2)cc1` [1-(4-Methoxyphenyl)-3-(pyridin-3-ylmethyl)urea], where the note is “Table B-3”, the half-maximal effective concentration (EC50) was more than 20 µM.

`COc1ccc(NC(=O)NCc2ccncc2)cc1` [1-(4-Methoxyphenyl)-3-(pyridin-4-ylmethyl)urea] registered an EC50 (Table B-2) of more than 20 µM.

The molecule `O=C(NCc1ccncc1)Nc1ccc(S(=O)(=O)Cc2ccccc2)cc1` [1-(4-Phenylmethanesulfonyl-phenyl)-3-pyridin-4-ylmethyl-urea] registered an EC50 (Table B-2) of 2 to 5 µM.

Consider `O=C(NCc1ccncc1)Nc1ccc(NS(=O)(=O)Cc2ccc(Cl)cc2)cc1` [1-(4-chlorophenyl)-N-(4-(3-(pyridin-4-ylmethyl)ureido)phenyl)methanesulfonamide], for which the EC50 (Table B-2) was less than 0.1 µM.

`O=C(NCc1cnco1)Nc1ccc(S(=O)(=O)C2CCCCC2)cc1` [1-(4-cyclohexanesulfonyl-phenyl)-3-oxazol-5-ylmethyl-urea] returned an EC50 (Table B-5) of 2 to 5 µM.

`Cc1cccc2c1c(-c1ccc(NC(=O)NCc3cn[nH]c3)cc1)nn2C` [1-((1H-Pyrazol-4-yl)methyl)-3-(4-(1,4-dimethyl-1H-indazol-3-yl)phenyl)urea] came in with a concentration giving a half-maximal response (EC50) (Table B-4) of 0.1 to 2 µM.

Regarding `Cc1ccc2c(c1)c(-c1ccc(NC(=O)NCc3cn[nH]c3)cc1)nn2C` [1-((1H-Pyrazol-4-yl)methyl)-3-(4-(1,5-dimethyl-1H-indazol-3-yl)phenyl)urea], the EC50 (Table B-4) lay within 0.1 to 2 µM.

Consider `Cc1cccc2c(-c3ccc(NC(=O)NCc4cn[nH]c4)cc3)nn(C)c12` [1-((1H-Pyrazol-4-yl)methyl)-3-(4-(1,7-dimethyl-1H-indazol-3-yl)phenyl)urea], for which, where the note is “Table B-4”, the EC50 was in the range of 2 to 5 µM.

Where the note is “Table B-4”, `Cn1nc(-c2ccc(NC(=O)NCc3cn[nH]c3)cc2)c2ccncc21` [1-((1H-Pyrazol-4-yl)methyl)-3-(4-(1-methyl-1H-pyrazolo[3,4-c]pyridin-3-yl)phenyl)urea] had a concentration for a half-maximal effect (EC50) of 2 to 5 µM.

Take `O=C(NCc1cn[nH]c1)Nc1ccc(-c2ncc(Cc3ccccc3)s2)cc1` [1-((1H-Pyrazol-4-yl)methyl)-3-(4-(5-benzylthiazol-2-yl)phenyl)urea]: the concentration for a half-maximal effect (EC50) (Table B-4) fell in the range of 2 to 5 µM.
